Data: US4246270A, “3-Fluorobenzodiazepines and compositions and uses thereof” (E. I. Du Pont de Nemours and Company, priority 1976, dated 1981)
Where two headings read alike, the source gives them in different places.

Key:
[1] = tested on: PTZ-induced clonic convulsions; experiment: Antipentylenetetrazole (PTZ) test; assay type: in vivo; conditions: mouse; for ED50: 0.5 h, oral (intubated), 30 minutes before PTZ 40 mg/kg iv, read-out: Anti-PTZ, mouse ED50
Protocol: (§1) Standard procedures for detecting and comparing the tranquilizer, muscle-relaxant, and sedative activity of compounds in this series for which there is a correlation with human efficacy are the following: pinna reflex tests, antipentylenetetrazole test, rat activity suppression test (RAST), muscle relaxant (anti-straub tail) test, and mouse activity suppression test (MAST).
Fasted female white mice, 10 per dose are intubated with drug in vehicle as above at doses such as 0, 1, 3, 9, 27 and 81 mg/kg. Thirty minutes later the mice are dosed intravenously with PTZ (Metrazol®^1) at 40 mg/kg (ED98 for clonic convulsions). Dosed animals which remain on a 4"×4" platform for 20 seconds are considered protected. Quantal ED50 's are calculated by the moving average method.
1 Original brand of pentylenetetrazole; sterile 10% aqueous solution for parenteral injection, Knoll Pharmaceutical Company.
(§2) Potency in the antipentylenetetrazole (PTZ), the MAST, and the RAST tests indicates a potent antianxiety agent. Great potency for blockade of the mouse auditory pinna reflex with little or no effect on tactile pinna reflex is characteristic of minor tranquilizers.

auditory pinna reflex = experiment: Auditory pinna reflex test (mouse); assay type: in vivo; conditions: 0.5 h, oral (intubated), 30 minutes
Protocol: as §1
(§3) Fasted female white mice, 5 per dose are intubated with drug at 4, 12, 36, 108 and 324 mg/kg in 1% Methocel®^- 1.25% Tween 80®, at 10 ml/kg. The auditory and tactile pinna are tested at 0.5, 2, 5 and 24 hours.
The mouse is placed on a horizontal bar 9 cm from a Galton whistle adjusted for 13 Kc. Failure to flatten the ears during one or 2 short bursts of sound constitutes loss of auditory pinna reflex.
as §2

[2] = tested on: morphine-induced Straub tail; experiment: Muscle relaxant (anti-Straub tail) test; assay type: in vivo; conditions: 0.5 h; mouse, oral (intubated), 30 minutes; blockade of morphine-induced Straub tail (53.7 mg/kg sc)
Excerpt: as §1
Fasted female white mice, 5 per dose are intubated with test drug. Twenty-five minutes later morphine sulfate is given subcutaneously at 53.7 mg/kg. Thirty minutes after test drug the mice are observed for presence of Straub tail. Quantal ED50 values for blockade of morphine-induced Straub tail are calculated.
as §2

tactile pinna reflex = experiment: Tactile pinna reflex test (mouse); assay type: in vivo; conditions: 0.5 h, oral (intubated), 30 minutes
Protocol: as §1, §3
The mouse is held by the tail and the hairs inside the right ear are touched by the fine wire stylus from a 27 gauge needle. Failure of the mouse to twitch or move the head constitutes loss of the tactile pinna reflex.
as §2

[3] = tested on: suppression of exploratory locomotor behavior by punishment; experiment: Mouse activity suppression test (MAST); assay type: in vivo; conditions: oral, footnote *ED20%
Excerpt: as §1
The Mouse Activity Suppression Test (MAST) is a model system designed to detect compounds with possible anti-anxiety activity in humans. […] The punishment, an electric shock applied through the mouse's paws, quickly extinguishes normal behavior.
The test procedure is modified from Boissier, et al., European J. Pharm., 4, 145-151 (1968). Female white mice, fasted 16-22 hours, are randomly distributed to fiberglass holding boxes. Mice in groups of 10-20 are dosed orally and returned to their holding boxes until test time. Test drug suspensions or solutions are prepared by sonication in 1% Methocel®. Typical dose ranges include 0.5, 1, 2, and 4 mg/k or 1, 3, 9, 27, 81 mg/kg plus a vehicle control and are selected to include one dose at which an effect such as sedation, stimulation, muscle weakness or analgesia was seen.
The test apparatus is an opaque, black plastic box with a clear lid and a stainless steel grid floor. The floor of the test box is marked off into four squares of equal size.
After dosing, a mouse is gently place in one corner of the testing box and during the next minute each time the mouse makes a full crossing from one square section of the box to another the floor is electrified with 0.4 ma current for 2.0 seconds.
The number of shocks received by each mouse is recorded and the mean number of shocks/dose (X) is determined. When X drug at any dose is statistically greater than X controls (Student's t test), antagonism of suppression obtains and the drug is presumed to have anti-anxiety activity.
as §2

[4] = tested on: line crossings suppressed by shock; experiment: Rat activity suppression test (RAST); assay type: in vivo; conditions: 0.5 h, oral (intubated), 30 minutes, dose which would increase crossings 50% over controls
Excerpt: as §1
The test apparatus consists of a circular cage with lid and with a floor of electrifiable steel bars. D.C. shock current is supplied to the bars such that touching any 2 alternate bars shocks the rat. The floor is marked to yield 4 equal pie-shaped sectors.
Fasted male white rats, 10 per dose are intubated with drug as described above for mice. Thirty minutes after dosing a rat is placed in the test apparatus and is allowed 30 seconds to transverse 25% of the floor area after which he receives a shock. The rat is allowed 5 seconds to recover from the shock, then its "line crossings" are counted for 60 seconds. The mean number of crossings per rat for each dose are determined and are compared to the mean number of crossings of the vehicle treated controls. ED50 %, the dose which would increase the number of crossings 50% over controls, is determined graphically.
as §2

[5] = man and other animals; cited from earlier work
[6] = warming in alcohol; cited from earlier work
[7] = 0.5 h, 30 minutes, read-out: MAST, ED20%

SMILES | ED50 [1] | ED50 (auditory pinna reflex) | ED50 [2] | ED50 (tactile pinna reflex) | ED20 [3, 7] | ED50 [4] | ED98 ([1]; intravenous PTZ challenge) | ED20 ([3]; 1 h, 60 minutes (footnote d), read-out: MAST, ED20% (at 60 minutes)) | metabolism [5] | stability (3-chloro derivative) [6]
C=CCN1C(=O)C(F)N=C(c2ccccc2)c2cc(Cl)ccc21 (stereo not drawn) [X=Cl, Y=H, Z=CH2 CHCH2, 3-Fluoro-1-(allyl)-7-chloro-5-phenyl-2H-1,4-benzodiazepin-2-one] | 6.1 mg/kg | 20 mg/kg | < 1 mg/kg | 100 mg/kg | 2.9 mg/kg | – | – | – | – | –
O=C1Nc2ccc(Br)cc2C(c2ccccc2F)=NC1F (stereo not drawn) [X=Br, Y=F, Z=H, 3-Fluoro-7-bromo-5-(2-fluorophenyl)-1,3-dihydro-2H-benzodiazepin-2-one] | 0.12 mg/kg | < 4 mg/kg | – | 300 mg/kg | – | – | – | – | – | –
O=C1Nc2ccc(Cl)cc2C(c2ccccc2F)=NC1F (stereo not drawn) [X=Cl, Y=F, Z=H, 3-Fluoro-1,3-dihydro-7-chloro-5-(2-fluorophenyl)-2H-1,4-benzodiazepin-2-one] | 0.42 mg/kg | 12 mg/kg | – | 200 mg/kg | 0.48 mg/kg | – | – | – | – | –
CN1C(=O)C(F)N=C(c2ccccc2)c2cc(Cl)ccc21 (stereo not drawn) [X=Cl, Y=H, Z=CH3, 3-Fluoro-1,3-dihydro-1-methyl-7-chloro-5-phenyl-2H-1,4-benzodiazepin-2-one] | 0.18 mg/kg | 5 mg/kg | 0.25 mg/kg | 121 mg/kg | 0.25 mg/kg | 0.45 mg/kg | – | – | – | –
O=C1Nc2ccc(Cl)cc2C(c2ccccc2)=NC1O (stereo not drawn) [Oxazepam, reference compound] | 2 mg/kg | 2.9 mg/kg | 0.26 mg/kg | – | 2.7 mg/kg | 2.5 mg/kg | – | – | – | –
C1CCc2nnnn2CC1 [PTZ, pentylenetetrazole, reference compound] | – | – | – | – | – | – | 40 mg/kg | – | – | –
CCN1C(=O)C(F)N=C(c2ccccc2)c2cc(Cl)ccc21 (stereo not drawn) [X=Cl, Y=H, Z=C2 H5, 3-Fluoro-1,3-dihydro-1-ethyl-7-chloro-5-phenyl-2H-1,4-benzodiazepin-2-one] | 0.56 mg/kg | 12 mg/kg | < 0.24 mg/kg | > 324 mg/kg | 0.45 mg/kg | – | – | – | – | –
O=C1Nc2ccc(Cl)cc2C(c2ccccc2)=NC1F (stereo not drawn) [X=Cl, Y=H, Z=H, 3-Fluoro-1,3-dihydro-7-chloro-5-phenyl-2H-1,4-benzodiazepin-2-one] | 0.39 mg/kg | 2.6 mg/kg | 0.1 mg/kg | – | – | – | – | 0.37 mg/kg | – | –
O=C1CN=C(c2ccccc2)c2cc([N+](=O)[O-])ccc2N1 [nitrazepam] | – | – | – | – | – | – | – | – | metabolized in man and other animals by oxidative attack at the 3-position | –
CN1C(=O)C(F)N=C(c2ccccc2F)c2cc(Cl)ccc21 (stereo not drawn) [X=Cl, Y=F, Z=CH3, 3-Fluoro-1,3-dihydro-1-methyl-7-chloro-5-(2-fluorophenyl)-2H-1,4-benzodiazepin-2-one] | 0.12 mg/kg | 7 mg/kg | 0.06 mg/kg | 200 mg/kg | 0.05 mg/kg | 0.24 mg/kg | – | – | – | –
O=C1Nc2ccc(Cl)cc2C(c2ccccc2)=NC1Cl (stereo not drawn) [3,7-dichloro-5-phenyl-1,3-dihydro-2H-1,4-benzodiazepin-2-one] | – | – | – | – | – | – | – | – | – | extremely reactive: mere warming in alcohol caused decomposition
O=C1Nc2ccc(Br)cc2C(c2ccccc2)=NC1F (stereo not drawn) [X=Br, Y=H, Z=H, 3-Fluoro-7-bromo-1,3-dihydro-5-phenyl-2H-1,4-benzodiazepin-2-one] | 0.74 mg/kg | 1.2 mg/kg | 0.05 mg/kg | 100 mg/kg | 0.04 mg/kg | 0.15 mg/kg | – | – | – | –
O=C1Nc2ccc(Cl)cc2C(c2ccccc2Cl)=NC1F (stereo not drawn) [X=Cl, Y=Cl, Z=H, 3-Fluoro-7-chloro-5-(2-chlorophenyl)-1,3-dihydro-2H-1,4-benzodiazepin-2-one] | 0.34 mg/kg | < 4 mg/kg | < 0.33 mg/kg | > 324 mg/kg | 1.15 mg/kg | – | – | – | – | –
CNC(=O)N1C(=O)C(F)N=C(c2ccccc2)c2cc(Cl)ccc21 (stereo not drawn) [X=Cl, Y=H, Z=[drawing 57]] | – | < 4 mg/kg | – | 36 mg/kg | – | – | – | – | – | –
CNC1=Nc2ccc(Cl)cc2C(c2ccccc2)=[N+]([O-])C1 [Chlorodiazepoxide, reference compound] | 7.5 mg/kg | 70 mg/kg | 1.9 mg/kg | 320 mg/kg | 8.5 mg/kg | 6 mg/kg | – | – | – | –
CN1C(=O)C(F)N=C(c2ccccc2F)c2cc(Br)ccc21 (stereo not drawn) [X=Br, Y=F, Z=CH3, 3-Fluoro-7-bromo-5-(2-fluorophenyl)-1,3-dihydro-1-methyl-2H-1,4-benzodiazepin-2-one] | 0.06 mg/kg | < 4 mg/kg | – | < 324 mg/kg | – | – | – | – | – | –
CN1C(=O)C(F)N=C(c2ccccc2Cl)c2cc(Cl)ccc21 (stereo not drawn) [X=Cl, Y=Cl, Z=CH3, 3-Fluoro-7-chloro-5-(2-chlorophenyl)-1,3-dihydro-1-methyl-2H-1,4-benzodiazepin-2-one] | 0.09 mg/kg | 60 mg/kg | – | > 324 mg/kg | – | – | – | – | – | –
CN1C(=O)CN=C(c2ccccc2)c2cc(Cl)ccc21 [Diazepam, reference compound] | 0.49 mg/kg | 4 mg/kg | 1 mg/kg | 187 mg/kg | 1.1 mg/kg | 1.5 mg/kg | – | – | – | –
CCN(CC)CCN1C(=O)CN=C(c2ccccc2F)c2cc(Cl)ccc21 [flurazepam] | – | – | – | – | – | – | – | – | metabolized in man and other animals by oxidative attack at the 3-position | –
CN1C(=O)C(F)N=C(c2ccccc2)c2cc(Br)ccc21 (stereo not drawn) [X=Br, Y=H, Z=CH3, 3-Fluoro-7-bromo-1,3-dihydro-1-methyl-5-phenyl-2H-1,4-benzo-diazepin-2-one] | 0.22 mg/kg | 1.3 mg/kg | – | 300 mg/kg | 0.16 mg/kg | 1.7 mg/kg | – | – | – | –
